≈ marks a conversion by molar mass, not a printed value. Calls of active or inactive are those of the source. The calls are words filed in the database; no cut-off is given here.
How the values were obtained:
Escherichia coli [1] = assay: Inhibition of Metallo-beta-lactamase NDM-1 in Escherichia coli clinical isolate assessed as fold reduction in meropenem MIC at 64 ug/ml; details: dose 64.0 µg/ml
Escherichia coli [2] = assay: Inhibition of Metallo-beta-lactamase NDM-1 in Escherichia coli clinical isolate assessed as MIC for meropenem antibacterial activity at 32 ug/ml (reference value: 64 ug/ml); details: dose 32.0 µg/ml
Enterobacter cloacae [3] = assay: Inhibition of Metallo-beta-lactamase IMP-1 in Enterobacter cloacae clinical isolate assessed as MIC for meropenem antibacterial activity at 128 ug/ml (Rvb =16 ug/ml); details: dose 128.0 µg/ml
Klebsiella pneumoniae [4] = assay: Inhibition of Metallo-beta-lactamase IMP-28 in Klebsiella pneumoniae clinical isolate assessed as MIC for meropenem antibacterial activity at 32 ug/ml (reference value: 4 ug/ml); details: dose 32.0 µg/ml
Escherichia coli [5] = assay: Inhibition of Metallo-beta-lactamase NDM-1 in Escherichia coli clinical isolate assessed as MIC for meropenem antibacterial activity at 64 ug/ml (reference value: 64 ug/ml); details: dose 64.0 µg/ml
Klebsiella pneumoniae [6] = assay: Substrate activity at Klebsiella pneumoniae beta-lactamase IMP-28 assessed as compound hydrolysis by measuring Kcat by Michaelis-Menten analysis
Klebsiella pneumoniae [7] = assay: Substrate activity at Klebsiella pneumoniae beta-lactamase IMP-28 assessed as compound hydrolysis by measuring Km by Michaelis-Menten analysis
Escherichia coli [8] = assay: Inhibition of Metallo-beta-lactamase VIM-2 in Escherichia coli clinical isolate assessed as MIC for meropenem antibacterial activity at 128 ug/ml (reference value: 8 ug/ml); details: dose 128.0 µg/ml
Enterobacter cloacae [9] = assay: Inhibition of Metallo-beta-lactamase IMP-1 in Enterobacter cloacae clinical isolate assessed as fold reduction in meropenem MIC at 32 ug/ml; details: dose 32.0 µg/ml
[10] = Inhibition of Enterobacter cloacae IMP-1 using nitrocefin chromogenic substrate measured after 15 to 60 min at 25 degC by microplate reader
[11] = Inhibition of Klebsiella pneumoniae beta-lactamase IMP-28 using nitrocefin chromogenic substrate measured after 15 to 60 min at 25 degC by microplate reader
Escherichia coli [12] = assay: Inhibition of Metallo-beta-lactamase NDM-1 in Escherichia coli clinical isolate assessed as MIC for meropenem antibacterial activity at 128 ug/ml (reference value: 64 ug/ml); details: dose 128.0 µg/ml
Klebsiella pneumoniae [13] = assay: Inhibition of Metallo-beta-lactamase IMP-28 in Klebsiella pneumoniae clinical isolate assessed as fold reduction in meropenem MIC at 32 ug/ml; details: dose 32.0 µg/ml
[14] = Stability of the compound in Muller hinton broth assessed compound remaining measured after 15 hrs by HPLC analysis; assay type: physicochemical; details: Mueller Hinton broth, read-out: Stability
Enterobacter cloacae [15] = assay: Inhibition of Metallo-beta-lactamase IMP-1 in Enterobacter cloacae clinical isolate assessed as MIC for meropenem antibacterial activity at 32 ug/ml (Rvb =16 ug/ml); details: dose 32.0 µg/ml
Enterobacter cloacae [16] = assay: Inhibition of Metallo-beta-lactamase IMP-1 in Enterobacter cloacae clinical isolate assessed as fold reduction in meropenem MIC at 64 ug/ml; details: dose 64.0 µg/ml
Klebsiella pneumoniae [17] = assay: Inhibition of Metallo-beta-lactamase IMP-28 in Klebsiella pneumoniae clinical isolate assessed as MIC for meropenem antibacterial activity at 128 ug/ml (reference value: 4 ug/ml); details: dose 128.0 µg/ml
Enterobacter cloacae [18] = assay: Inhibition of Metallo-beta-lactamase IMP-1 in Enterobacter cloacae clinical isolate assessed as MIC for meropenem antibacterial activity at 64 ug/ml (Rvb =16 ug/ml); details: dose 64.0 µg/ml
Escherichia coli [19] = assay: Inhibition of Metallo-beta-lactamase NDM-1 in Escherichia coli clinical isolate assessed as fold reduction in meropenem MIC at 128 ug/ml; details: dose 128.0 µg/ml
Escherichia coli [20] = assay: Inhibition of Metallo-beta-lactamase NDM-1 in Escherichia coli clinical isolate assessed as fold reduction in meropenem MIC at 32 ug/ml; details: dose 32.0 µg/ml
[21] = Inhibition of Escherichia coli beta-lactamase NDM-1 using nitrocefin chromogenic substrate measured after 15 to 60 min at 25 degC by microplate reader
Enterobacter cloacae [22] = assay: Inhibition of Metallo-beta-lactamase IMP-1 in Enterobacter cloacae clinical isolate assessed as fold reduction in meropenem MIC at 128 ug/ml; details: dose 128.0 µg/ml
Klebsiella pneumoniae [23] = assay: Inhibition of Metallo-beta-lactamase IMP-28 in Klebsiella pneumoniae clinical isolate assessed as fold reduction in meropenem MIC at 64 ug/ml; details: dose 64.0 µg/ml
Klebsiella pneumoniae [24] = assay: Antibacterial activity against beta-lactamase IMP-28 producing Klebsiella pneumoniae clinical isolate measured upto 128 ug/ml; assay type: functional, organism-based
Escherichia coli [25] = assay: Inhibition of Metallo-beta-lactamase VIM-2 in Escherichia coli clinical isolate assessed as fold reduction in meropenem MIC at 32 ug/ml; details: dose 32.0 µg/ml
Klebsiella pneumoniae [26] = assay: Substrate activity at Klebsiella pneumoniae beta-lactamase IMP-28 assessed as compound hydrolysis by measuring Kcat/Km by Michaelis-Menten analysis
[27] = Inhibition of Escherichia coli beta-lactamase VIM-2 using nitrocefin chromogenic substrate measured after 15 to 60 min at 25 degC by microplate reader
Klebsiella pneumoniae [28] = assay: Inhibition of Metallo-beta-lactamase IMP-28 in Klebsiella pneumoniae clinical isolate assessed as fold reduction in meropenem MIC at 128 ug/ml; details: dose 128.0 µg/ml
Escherichia coli [29] = assay: Inhibition of Metallo-beta-lactamase VIM-2 in Escherichia coli clinical isolate assessed as MIC for meropenem antibacterial activity at 64 ug/ml (reference value: 8 ug/ml); details: dose 64.0 µg/ml
Escherichia coli [30] = assay: Inhibition of Metallo-beta-lactamase VIM-2 in Escherichia coli clinical isolate assessed as fold reduction in meropenem MIC at 128 ug/ml; details: dose 128.0 µg/ml
Escherichia coli [31] = assay: Antibacterial activity against beta-lactamase NDM1 producing Escherichia coli clinical isolate measured upto 128 ug/ml; assay type: functional, organism-based
Escherichia coli [32] = assay: Inhibition of Metallo-beta-lactamase VIM-2 in Escherichia coli clinical isolate assessed as fold reduction in meropenem MIC at 64 ug/ml; details: dose 64.0 µg/ml
Klebsiella pneumoniae [33] = assay: Inhibition of Metallo-beta-lactamase IMP-28 in Klebsiella pneumoniae clinical isolate assessed as MIC for meropenem antibacterial activity at 64 ug/ml (reference value: 4 ug/ml); details: dose 64.0 µg/ml
Enterobacter cloacae [34] = assay: Antibacterial activity against beta-lactamase IMP1 producing Enterobacter cloacae clinical isolate measured upto 128 ug/ml; assay type: functional, organism-based
Escherichia coli [35] = assay: Inhibition of Metallo-beta-lactamase VIM-2 in Escherichia coli clinical isolate assessed as MIC for meropenem antibacterial activity at 32 ug/ml (reference value: 8 ug/ml); details: dose 32.0 µg/ml
Escherichia coli [36] = assay: Antibacterial activity against beta-lactamase VIM2 producing Escherichia coli clinical isolate measured upto 128 ug/ml; assay type: functional, organism-based

O=C(Cc1ccccc1)N[C@@H]1C(=O)N2C(C(=O)O)=C(CS[C@@H](Cc3ccccc3)C(=O)O)CS[C@H]12
fold change (FC) (Escherichia coli [1]): 2
MIC (Escherichia coli [2]): 32 µg/mL (≈ 62.4 µM)
MIC (Enterobacter cloacae [3]): 4 µg/mL (≈ 7.8 µM)
MIC (Klebsiella pneumoniae [4]): 1 µg/mL (≈ 1.95 µM)
MIC (Escherichia coli [5]): 32 µg/mL (≈ 62.4 µM)
kcat (Klebsiella pneumoniae [6]): 41 s⁻¹
Km (Klebsiella pneumoniae [7]): 175 µM
MIC (Escherichia coli [8]): 4 µg/mL (≈ 7.8 µM)
fold change (FC) (Enterobacter cloacae [9]): 2
IC50 [10]: 48 µM
IC50 [11]: 30 µM
MIC (Escherichia coli [12]): 16 µg/mL (≈ 31.2 µM)
fold change (FC) (Klebsiella pneumoniae [13]): 4
remaining at 15 h [14]: > 95%
MIC (Enterobacter cloacae [15]): 8 µg/mL (≈ 15.6 µM)
fold change (FC) (Enterobacter cloacae [16]): 2
MIC (Klebsiella pneumoniae [17]): 0.25 µg/mL (≈ 0.488 µM)
MIC (Enterobacter cloacae [18]): 8 µg/mL (≈ 15.6 µM)
fold change (FC) (Escherichia coli [19]): 4
fold change (FC) (Escherichia coli [20]): 2
IC50 [21]: 51 µM
fold change (FC) (Enterobacter cloacae [22]): 4
fold change (FC) (Klebsiella pneumoniae [23]): 8
Activity (Klebsiella pneumoniae [24]): inactive
fold change (FC) (Escherichia coli [25]): 1
kcat/Km (Klebsiella pneumoniae [26]): 234000 M⁻¹ s⁻¹
IC50 [27]: 19 µM
fold change (FC) (Klebsiella pneumoniae [28]): 16
MIC (Escherichia coli [29]): 8 µg/mL (≈ 15.6 µM)
fold change (FC) (Escherichia coli [30]): 2
Activity (Escherichia coli [31]): inactive
fold change (FC) (Escherichia coli [32]): 1
MIC (Klebsiella pneumoniae [33]): 0.5 µg/mL (≈ 0.975 µM)
Activity (Enterobacter cloacae [34]): inactive
MIC (Escherichia coli [35]): 8 µg/mL (≈ 15.6 µM)
Activity (Escherichia coli [36]): inactive

— ChEMBL document CHEMBL5034010, “Novel Cephalosporin Conjugates Display Potent and Selective Inhibition of Imipenemase-Type Metallo-β-Lactamases” (J Med Chem, 2021)
